# Laboratory results from publication PMC7807415 (Toxicology letters, 2020).
# “And” between values parts separate entries of the source, which are not always exact repeats. Equal values may be shown once.
# T1: CYP1A2 (Homo sapiens, UniProt P05177)
# T1 sequence (P05177 1-516): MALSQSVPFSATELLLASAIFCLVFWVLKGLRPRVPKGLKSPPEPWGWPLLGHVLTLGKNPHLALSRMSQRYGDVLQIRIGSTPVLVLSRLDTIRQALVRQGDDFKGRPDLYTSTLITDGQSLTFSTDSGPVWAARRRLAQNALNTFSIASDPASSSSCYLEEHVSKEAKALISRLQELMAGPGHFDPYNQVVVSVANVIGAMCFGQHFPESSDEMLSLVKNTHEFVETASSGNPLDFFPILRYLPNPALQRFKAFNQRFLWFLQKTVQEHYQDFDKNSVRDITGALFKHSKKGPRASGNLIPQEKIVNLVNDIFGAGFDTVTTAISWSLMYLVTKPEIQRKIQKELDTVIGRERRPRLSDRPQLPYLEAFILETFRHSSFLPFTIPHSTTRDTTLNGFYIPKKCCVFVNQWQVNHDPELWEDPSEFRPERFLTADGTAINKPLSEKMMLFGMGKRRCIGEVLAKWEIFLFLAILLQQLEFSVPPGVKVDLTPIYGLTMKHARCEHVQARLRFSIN
# B1: CYP1A2 (Homo sapiens) (protein)
# chain: T1 sequence (P05177 1-516)
# B2: CYP2C19 (Homo sapiens) (protein)
# chain: MDPFVVLVLCLSCLLLLSIWRQSSGRGKLPPGPTPLPVIGNILQIDIKDVSKSLTNLSKIYGPVFTLYFGLERMVVLHGYEVVKEALIDLGEEFSGRGHFPLAERANRGFGIVFSNGKRWKEIRRFSLMTLRNFGMGKRSIEDRVQEEARCLVEELRKTKASPCDPTFILGCAPCNVICSIIFQKRFDYKDQQFLNLMEKLNENIRIVSTPWIQICNNFPTIIDYFPGTHNKLLKNLAFMESDILEKVKEHQESMDINNPRDFIDCFLIKMEKEKQNQQSEFTIENLVITAADLLGAGTETTSTTLRYALLLLLKHPEVTAKVQEEIERVIGRNRSPCMQDRGHMPYTDAVVHEVQRYIDLIPTSLPHAVTCDVKFRNYLIPKGTTILTSLTSVLHDNKEFPNPEMFDPRHFLDEGGNFKKSNYFMPFSAGKRICVGEGLARMELFLFLTFILQNFNLKSLIDPKDLDTTPVVNGFASVPPFYQLCFIPV
# B3: CYP2C8 (Homo sapiens) (protein)
# chain: MEPFVVLVLCLSFMLLFSLWRQSCRRRKLPPGPTPLPIIGNMLQIDVKDICKSFTNFSKVYGPVFTVYFGMNPIVVFHGYEAVKEALIDNGEEFSGRGNSPISQRITKGLGIISSNGKRWKEIRRFSLTTLRNFGMGKRSIEDRVQEEAHCLVEELRKTKASPCDPTFILGCAPCNVICSVVFQKRFDYKDQNFLTLMKRFNENFRILNSPWIQVCNNFPLLIDCFPGTHNKVLKNVALTRSYIREKVKEHQASLDVNNPRDFIDCFLIKMEQEKDNQKSEFNIENLVGTVADLFVAGTETTSTTLRYGLLLLLKHPEVTAKVQEEIDHVIGRHRSPCMQDRSHMPYTDAVVHEIQRYSDLVPTGVPHAVTTDTKFRNYLIPKGTTIMALLTSVLHDDKEFPNPNIFDPGHFLDKNGNFKKSDYFMPFSAGKRICAGEGLARMELFLFLTTILQNFNLKSVDDLKNLNTTAVTKGIVSLPPSYQICFIPV
# Tests used:
# [1] = system: P450 activity in human liver microsomes (HLM150); test: Inhibitor phenotyping of bioactivation in human liver microsomes; format: in vitro ADME
# [2] = FAERS search for hepatobiliary disorder cases involving meloxicam; parameters: species or system human
# CYP3A4 = CYP3A4 (Homo sapiens, UniProt P08684); settings: 400 µM sudoxicam, 100 nM CYP3A4, 30 min
# CYP2C19 = CYP2C19 (Homo sapiens, UniProt P33261); settings: 400 µM sudoxicam, 100 nM CYP2C19, 30 min
# CYP1A2 = biological target: T1, CYP1A2; settings: pH 7.4
# [3] = BJC HealthCare electronic health record cohort: DILI hospitalizations; parameters: species or system human; settings: of 2800 DILI hospitalizations; 4570 hospitalizations prescribed meloxicam
# [4] = patients; ref Gschwend et al., 2007; cited from earlier work
# [5] = substrate: Cc1cnc(NC(=O)C2=C(O)c3ccccc3S(=O)(=O)N2C)s1; test: cells, lysate or membranes named; settings: other: meloxicam -> methylglyoxal (bioactivation), recombinant CYP 1A2; pH 7.4
# [6] = substrate: CN1C(C(=O)Nc2nccs2)=C(O)c2ccccc2S1(=O)=O; test: cells, lysate or membranes named; settings: other: sudoxicam -> glyoxal (bioactivation), pH 7.4
# CYP3A4, sequence (P08684 whole entry): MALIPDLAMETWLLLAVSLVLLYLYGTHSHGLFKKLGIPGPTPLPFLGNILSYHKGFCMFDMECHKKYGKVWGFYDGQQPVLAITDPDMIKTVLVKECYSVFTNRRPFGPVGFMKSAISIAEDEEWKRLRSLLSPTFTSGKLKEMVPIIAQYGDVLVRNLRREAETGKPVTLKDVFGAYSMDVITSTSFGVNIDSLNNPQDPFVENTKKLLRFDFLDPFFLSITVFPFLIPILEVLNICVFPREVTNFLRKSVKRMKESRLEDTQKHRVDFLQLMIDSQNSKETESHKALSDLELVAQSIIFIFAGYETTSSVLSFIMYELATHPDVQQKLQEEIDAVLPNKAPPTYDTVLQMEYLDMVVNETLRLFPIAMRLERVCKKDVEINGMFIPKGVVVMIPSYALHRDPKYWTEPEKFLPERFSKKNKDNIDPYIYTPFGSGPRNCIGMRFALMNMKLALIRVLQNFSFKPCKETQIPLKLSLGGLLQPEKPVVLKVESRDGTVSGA
molecule,measurement,setting,value
"Nn1nnc2ccccc21 [ABT, 1-aminobenzotriazole]",blocked methylglyoxal formation (meloxicam bioactivation),"[1]; 1 mM ABT, 10 µM meloxicam, HLM150 0.5 mg/mL, 40 min",85%
COc1ccc2[nH]c([S+]([O-])Cc3ncc(C)c(OC)c3C)nc2c1 (stereo not drawn) [omeprazole],share of total applicable hepatobiliary cases with concomitant drug,[2]; human,6%
"CN1C(C(=O)Nc2nccs2)=C(O)c2ccccc2S1(=O)=O [sudoxicam, N-(2-thiazolyl)-4-hydroxy-2-methyl-2H-1,2-benzothiazine-3-carboxamide 1,1-dioxide]",glyoxal formation in recombinant P450 screen,CYP3A4,capable of catalyzing the reaction
same,glyoxal formation in recombinant P450 screen,CYP2C19,capable of catalyzing the reaction
"O=c1cc(-c2ccccc2)oc2c1ccc1ccccc12 [ANF, α-naphthoflavone]",effect on glyoxal formation (sudoxicam bioactivation),"[1]; 16 µM ANF (CYP1A2 inhibitor), 10 µM sudoxicam, HLM150",increased significantly the extent of the reaction
Cc1c(OCC(F)(F)F)ccnc1C[S+]([O-])c1nc2ccccc2[nH]1 (stereo not drawn) [lansoprazole],share of total applicable hepatobiliary cases with concomitant drug,[2]; human,6%
Cc1cnc(NC(=O)C2=C(O)c3ccccc3S(=O)(=O)N2C)s1 [meloxicam],Scaled contribution of CYP1A2 (Vmax/Km),CYP1A2,0.457 pmol/min/mg protein/µM substrate
same,Vmax,CYP1A2,1000 ± 53 pmol/min/nmol protein
same,methylglyoxal formation in recombinant P450 screen,"CYP1A2; recombinant enzyme, 30 min, 400 µM",only recombinant P450 to form detectable levels of methylglyoxal
same,Percent contribution of CYP1A2,CYP1A2; recombinant enzyme,100%
same,hepatobiliary disorder cases resulting in death,"[2]; FAERS, 1998 to 2020",39 cases
same,serious cases of hepatobiliary disorders,[2]; human,308 cases
same,total cases of hepatobiliary disorders,[2]; human,326 cases
same,DILI hospitalizations that had been prescribed meloxicam,[3],8 hospitalizations
same,maximum plasma levels,[4],3.2 µM
B1,Km,[5],40 ± 7.5 µM
B2,Km,[6]; recombinant CYP 2C19,23 ± 5.2 µM
B3,Km,[6]; recombinant CYP 2C8,5 µM and 4.6 ± 0.89 µM
